Laboratory results reported in patent US10842785B2, “PIM kinase inhibitors in combination with RNA splicing modulators/inhibitors for treatment of cancers” (UNIVERSITY OF MARYLAND, BALTIMORE COUNTY, priority 2016, dated 2020).
“Also recorded” adds a separate entry of the source.

What was measured:
Assay type in all cases: cell-based
EOL1 cells = assay: MTT assay (number of live cells), EOL1 cells, single inhibitors and combination, Compusyn CI; details: for Effect (fraction of cells affected, FA): 48 hours
Description: (§1) General experimental procedure: 10,000 (MOLM16) or 20,000 (EOL1) cells were seeded per well in 96-well plates. After culturing overnight, AZD1208 and/or Pladienolide B/SRPIN340 were added to wells in quadruplicates at 5 different concentrations. Different ratios between AZD1208 and Pladienolide B were tried in MOLM16 and EOL1 cells. At 48 hours the MTT metabolism indicative of number of live cells was measured by MTT assay (Promega, Cat: G4000). The resulting values were used to evaluate the Fa (fraction affected) values, which were plugged into the Compusyn software to calculate the combination indices (CI values) at ED50, ED75, ED90 and ED95 (ED—Effective dose of combination).
To further confirm the finding in MOLM16 cells, it was tested whether the combination of AZD1208 and Pladienolide B is synergistic in another AML cell line—EOL1. Different ratios between AZD1208 and Pladienolide B were tested to identify the ideal ratio that provides maximum synergy.

MOLM16 cells = assay: MTT assay (number of live cells), MOLM16 cells, single inhibitors and combination, Compusyn CI; details: 48 hours
Description: as §1
These values of drug dose and effect (fraction of cells affected by the treatment—FA values) were input into the Compusyn software to estimate the interaction between the two drugs.

MCL1 splice variants = assay: Taqman qRT-PCR for MCL1 splice variants in MOLM16 cells; details: MOLM16, 20 μM, 24 hours
Description: Control=DMSO treated. […] Arrow indicate bands that change after AZD1208 treatment.
A few targets from the microarray data were chosen, that being, ones that were affected by PIM kinase inhibition. The procedure was manual curation of data, followed by reference seq analysis of splice variants to determine avalibilty of sequence information. Initially, changes in splice variants of a known apoptotic regulator, MCL1 were validated. The smaller isoform of MCL1 is pro-apototic, while the longer isoform has anti-apototic functions.

[1] = system: SR protein phosphorylation; assay: Western blot using phospho-SR protein antibody; details: MOLM16 and EOL1 cells, versus DMSO treated controls
Description: MOLM16 and EOL1 cells were treated with AZD1208 or SRPIN340 for indicated concentration and time. Cells lysates from treated cells were used for western blot analysis.
Phosphorylation of splicing factors is known to play a role in regulation of splicing. Phosphorylation of splicing factors called serine arginine rich proteins (SR proteins) is known to regulate their function and localization. Serine arginine rich protein kinases (SRPK1 and SRPK2) phosphorylate these proteins and inhibition of SRPK activity using the small molecule modulator SRPIN340 leads to reduction in phosphorylation. The level of SR protein phosphorylation can be visualized using phospho-SR protein antibody. It was investigated to determine if PIM kinases regulate SRPK activity to indirectly lead to changes in splicing. […] Thus, it was concluded that the SRPK activity was not affected by PIM kinase inhibition.

SMILES: CCC(O)C(C)C1OC1CC(C)/C=C/C=C(\C)C1OC(=O)CC(O)CCC(C)(O)C(OC(C)=O)/C=C/C1C (stereo not drawn) [Pladienolide B, pladienolide B]
- relative sensitivity of the cells to the two drugs (EOL1 cells; EOL1, Trial 1): more sensitive to Pladienolide B than AZD1208
- Effect (fraction of cells affected, FA) (EOL1 cells; EOL1, Trial 1, 0.001 μM): 0.315
- Effect (fraction of cells affected, FA) (EOL1 cells; EOL1, Trial 1, 0.002 μM): 0.633
- Effect (fraction of cells affected, FA) (EOL1 cells; EOL1, Trial 1, 0.003 μM): 0.890
- Effect (fraction of cells affected, FA) (EOL1 cells; EOL1, Trial 1, 0.004 μM): 0.957
- Effect (fraction of cells affected, FA) (EOL1 cells; EOL1, Trial 1, 0.005 μM): 0.982
- Effect (fraction of cells affected, FA) (EOL1 cells; EOL1, Trial 2, 0.0005 μM): 0.060
- Effect (fraction of cells affected, FA) (EOL1 cells; EOL1, Trial 2, 0.001 μM): 0.351
- Effect (fraction of cells affected, FA) (EOL1 cells; EOL1, Trial 2, 0.0015 μM): 0.528
- Effect (fraction of cells affected, FA) (EOL1 cells; EOL1, Trial 2, 0.002 μM): 0.706
- Effect (fraction of cells affected, FA) (EOL1 cells; EOL1, Trial 2, 0.0025 μM): 0.820
- Effect (fraction of cells affected, FA) (EOL1 cells; EOL1, Trial 3, 0.0005 μM): 0.095
- Effect (fraction of cells affected, FA) (EOL1 cells; EOL1, Trial 3, 0.001 μM): 0.360
- Effect (fraction of cells affected, FA) (EOL1 cells; EOL1, Trial 3, 0.0015 μM): 0.542
- Effect (fraction of cells affected, FA) (EOL1 cells; EOL1, Trial 3, 0.002 μM): 0.667
- Effect (fraction of cells affected, FA) (EOL1 cells; EOL1, Trial 3, 0.0025 μM): 0.814
- Effect (fraction of cells affected, FA) (MOLM16 cells; MOLM16, Trial 1, 0.002 μM): 0.517
- Effect (fraction of cells affected, FA) (MOLM16 cells; MOLM16, Trial 1, 0.004 μM): 0.599
- Effect (fraction of cells affected, FA) (MOLM16 cells; MOLM16, Trial 1, 0.006 μM): 0.711
- Effect (fraction of cells affected, FA) (MOLM16 cells; MOLM16, Trial 1, 0.008 μM): 0.726
- Effect (fraction of cells affected, FA) (MOLM16 cells; MOLM16, Trial 1, 0.01 μM): 0.757
- Effect (fraction of cells affected, FA) (MOLM16 cells; MOLM16, Trial 2, 0.002 μM): 0.487
- Effect (fraction of cells affected, FA) (MOLM16 cells; MOLM16, Trial 2, 0.004 μM): 0.676
- Effect (fraction of cells affected, FA) (MOLM16 cells; MOLM16, Trial 2, 0.006 μM): 0.752
- Effect (fraction of cells affected, FA) (MOLM16 cells; MOLM16, Trial 2, 0.008 μM): 0.821
- Effect (fraction of cells affected, FA) (MOLM16 cells; MOLM16, Trial 2, 0.01 μM): 0.862
- Effect (fraction of cells affected, FA) (MOLM16 cells; MOLM16, Trial 3, 0.002 μM): 0.393
- Effect (fraction of cells affected, FA) (MOLM16 cells; MOLM16, Trial 3, 0.004 μM): 0.607
- Effect (fraction of cells affected, FA) (MOLM16 cells; MOLM16, Trial 3, 0.006 μM): 0.696
- Effect (fraction of cells affected, FA) (MOLM16 cells; MOLM16, Trial 3, 0.008 μM): 0.749
- Effect (fraction of cells affected, FA) (MOLM16 cells; MOLM16, Trial 3, 0.01 μM): 0.814

SMILES: O=C(Nc1cc(C(F)(F)F)ccc1N1CCCCC1)c1ccncc1 [SRPIN340, N-[2-(1-Piperidinyl)-5-(trifluoromethyl)phenyl]-4-pyridinecarboxamide]
- Effect (fraction of cells affected, FA) (MOLM16 cells; MOLM16, SRPIN340 testing Trial 1, 5 μM): 0.004
- Effect (fraction of cells affected, FA) (MOLM16 cells; MOLM16, SRPIN340 testing Trial 1, 10 μM): 0.014
- Effect (fraction of cells affected, FA) (MOLM16 cells; MOLM16, SRPIN340 testing Trial 1, 20 μM): 0.385
- changes in MCL1 splicing (MCL1 splice variants): Changes in MCL1 splicing were not observed
- SR protein phosphorylation [1]: reduction in phosphorylation signal; also recorded: phosphorylation of SR proteins changes
